Values quoted from earlier work as cited in patent US20190290635A1, “METHODS OF TREATING BRAIN CANCER USING AGENTS THAT ALTER ACTIVITY OF A METABOLIC PATHWAY” (Clear Creek Bio, Inc., priority 2018, published 2019).

Columns and labels:
[1] = 43 patients; patient with papillary carcinoma of the thyroid; cited from earlier work
[2] = 650 mg/m^2 brequinar (days 1, 8 and 15) with 75 mg/m^2 cisplatin (day 1); cited from earlier work

For `Cc1c(-c2ccc(-c3ccccc3F)cc2)nc2ccc(F)cc2c1C(=O)O` [Brequinar sodium], the tumor response observed [1] is given as “One mixed response”.

In the case of `Cc1c(-c2ccc(-c3ccccc3F)cc2)nc2ccc(F)cc2c1C(=O)O` [Brequinar, 6-fluoro-2-(2′-fluoro-1,1′ biphenyl-4-yl)-3-methyl-4-quinoline carboxylic acid], the “modification of individual drug pharmacokinetic parameters in combination with cisplatin” value [2] is given as “without significant modifications”.
